Results reported in paper doi:10.1101/2021.04.08.439011v1 (biorxiv, 2021).

Experiments:
Conditions in all cases: 1 µM; binder
TAOK1 = TAOK1 (Homo sapiens, UniProt Q7L7X3)
MST1 = MST1 (Homo sapiens, UniProt Q13043)
FLT3(N841I) = FLT3(N841I) (Homo sapiens, UniProt P36888, N841I)
DLK = DLK (Homo sapiens, UniProt Q12852)
TRKC = TRKC (Homo sapiens, UniProt Q16288)
SRMS = SRMS (Homo sapiens, UniProt Q9H3Y6)
JNK2 = JNK2 (Homo sapiens, UniProt P45984)
MAST1 = MAST1 (Homo sapiens, UniProt Q9Y2H9)
WNK2 = WNK2 (Homo sapiens, UniProt Q9Y3S1)
CDK8 = CDK8 (Homo sapiens, UniProt P49336)
PKAC-alpha = PKAC-alpha (Homo sapiens, UniProt P17612)
TSSK3 = TSSK3 (Homo sapiens, UniProt Q96PN8)
CAMK2G = CAMK2G (Homo sapiens, UniProt Q13555)
MYLK2 = MYLK2 (Homo sapiens, UniProt Q9H1R3)
FYN = FYN (Homo sapiens, UniProt P06241)
Chain of FYN (P06241 whole entry): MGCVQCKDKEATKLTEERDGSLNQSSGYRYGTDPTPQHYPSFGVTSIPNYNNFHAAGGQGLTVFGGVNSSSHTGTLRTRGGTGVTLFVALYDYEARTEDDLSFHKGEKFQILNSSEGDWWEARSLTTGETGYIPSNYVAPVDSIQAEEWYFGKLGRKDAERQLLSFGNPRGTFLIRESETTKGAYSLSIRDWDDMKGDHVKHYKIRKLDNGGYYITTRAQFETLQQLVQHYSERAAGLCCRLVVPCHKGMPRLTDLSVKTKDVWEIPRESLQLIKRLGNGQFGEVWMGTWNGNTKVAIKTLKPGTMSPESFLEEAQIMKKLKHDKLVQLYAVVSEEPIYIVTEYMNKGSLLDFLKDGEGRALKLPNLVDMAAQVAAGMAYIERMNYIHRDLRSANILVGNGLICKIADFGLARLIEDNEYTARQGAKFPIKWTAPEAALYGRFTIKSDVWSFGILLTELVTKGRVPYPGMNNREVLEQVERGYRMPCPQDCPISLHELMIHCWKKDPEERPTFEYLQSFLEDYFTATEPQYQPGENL

MRCKB = MRCKB (Homo sapiens, UniProt Q9Y5S2)
Chain of MRCKB (Q9Y5S2 whole entry): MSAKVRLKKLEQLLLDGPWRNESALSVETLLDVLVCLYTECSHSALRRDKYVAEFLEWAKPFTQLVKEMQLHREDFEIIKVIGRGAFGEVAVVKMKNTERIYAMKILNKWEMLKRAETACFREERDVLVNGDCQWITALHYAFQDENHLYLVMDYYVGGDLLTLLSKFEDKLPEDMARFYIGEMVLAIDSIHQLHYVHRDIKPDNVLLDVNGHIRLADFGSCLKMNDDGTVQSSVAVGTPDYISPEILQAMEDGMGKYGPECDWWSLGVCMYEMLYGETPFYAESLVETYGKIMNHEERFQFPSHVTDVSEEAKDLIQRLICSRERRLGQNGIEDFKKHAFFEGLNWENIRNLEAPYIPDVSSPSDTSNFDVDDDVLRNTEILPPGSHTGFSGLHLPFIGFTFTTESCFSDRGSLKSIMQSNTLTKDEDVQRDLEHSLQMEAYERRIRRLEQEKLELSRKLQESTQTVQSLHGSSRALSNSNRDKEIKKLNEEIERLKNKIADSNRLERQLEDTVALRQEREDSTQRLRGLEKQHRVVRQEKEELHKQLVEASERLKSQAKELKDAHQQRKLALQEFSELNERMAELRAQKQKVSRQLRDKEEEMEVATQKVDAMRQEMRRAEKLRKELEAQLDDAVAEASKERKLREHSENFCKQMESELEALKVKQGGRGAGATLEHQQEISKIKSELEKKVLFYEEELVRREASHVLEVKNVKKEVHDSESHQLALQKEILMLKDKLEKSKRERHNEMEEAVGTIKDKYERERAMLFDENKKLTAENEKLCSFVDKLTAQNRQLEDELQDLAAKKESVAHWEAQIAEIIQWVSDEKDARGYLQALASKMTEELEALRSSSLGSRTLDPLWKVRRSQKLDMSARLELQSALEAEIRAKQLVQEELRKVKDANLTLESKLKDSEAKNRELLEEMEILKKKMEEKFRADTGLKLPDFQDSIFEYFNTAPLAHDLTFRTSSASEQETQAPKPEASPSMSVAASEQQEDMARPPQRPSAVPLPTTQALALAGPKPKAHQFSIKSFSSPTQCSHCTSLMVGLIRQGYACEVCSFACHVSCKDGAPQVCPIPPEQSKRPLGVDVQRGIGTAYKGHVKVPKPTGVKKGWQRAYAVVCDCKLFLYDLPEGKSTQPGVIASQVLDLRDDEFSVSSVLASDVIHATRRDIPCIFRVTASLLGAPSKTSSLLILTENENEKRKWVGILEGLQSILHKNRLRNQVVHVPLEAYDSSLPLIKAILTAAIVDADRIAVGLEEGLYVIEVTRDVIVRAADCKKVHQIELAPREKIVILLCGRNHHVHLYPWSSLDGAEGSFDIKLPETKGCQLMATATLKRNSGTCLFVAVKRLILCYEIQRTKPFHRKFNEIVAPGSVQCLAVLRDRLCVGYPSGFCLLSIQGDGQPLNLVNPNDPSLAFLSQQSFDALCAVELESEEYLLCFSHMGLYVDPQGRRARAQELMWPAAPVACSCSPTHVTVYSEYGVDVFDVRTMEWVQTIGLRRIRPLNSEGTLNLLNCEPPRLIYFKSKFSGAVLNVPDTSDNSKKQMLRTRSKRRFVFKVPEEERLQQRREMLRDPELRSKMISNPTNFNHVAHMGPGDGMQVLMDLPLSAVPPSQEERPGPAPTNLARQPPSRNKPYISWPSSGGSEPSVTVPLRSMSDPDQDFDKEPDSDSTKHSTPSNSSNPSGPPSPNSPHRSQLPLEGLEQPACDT

PKN2 = PKN2 (Homo sapiens, UniProt Q16513)
TAOK3 = TAOK3 (Homo sapiens, UniProt Q9H2K8)
Chain of TAOK3 (Q9H2K8 whole entry): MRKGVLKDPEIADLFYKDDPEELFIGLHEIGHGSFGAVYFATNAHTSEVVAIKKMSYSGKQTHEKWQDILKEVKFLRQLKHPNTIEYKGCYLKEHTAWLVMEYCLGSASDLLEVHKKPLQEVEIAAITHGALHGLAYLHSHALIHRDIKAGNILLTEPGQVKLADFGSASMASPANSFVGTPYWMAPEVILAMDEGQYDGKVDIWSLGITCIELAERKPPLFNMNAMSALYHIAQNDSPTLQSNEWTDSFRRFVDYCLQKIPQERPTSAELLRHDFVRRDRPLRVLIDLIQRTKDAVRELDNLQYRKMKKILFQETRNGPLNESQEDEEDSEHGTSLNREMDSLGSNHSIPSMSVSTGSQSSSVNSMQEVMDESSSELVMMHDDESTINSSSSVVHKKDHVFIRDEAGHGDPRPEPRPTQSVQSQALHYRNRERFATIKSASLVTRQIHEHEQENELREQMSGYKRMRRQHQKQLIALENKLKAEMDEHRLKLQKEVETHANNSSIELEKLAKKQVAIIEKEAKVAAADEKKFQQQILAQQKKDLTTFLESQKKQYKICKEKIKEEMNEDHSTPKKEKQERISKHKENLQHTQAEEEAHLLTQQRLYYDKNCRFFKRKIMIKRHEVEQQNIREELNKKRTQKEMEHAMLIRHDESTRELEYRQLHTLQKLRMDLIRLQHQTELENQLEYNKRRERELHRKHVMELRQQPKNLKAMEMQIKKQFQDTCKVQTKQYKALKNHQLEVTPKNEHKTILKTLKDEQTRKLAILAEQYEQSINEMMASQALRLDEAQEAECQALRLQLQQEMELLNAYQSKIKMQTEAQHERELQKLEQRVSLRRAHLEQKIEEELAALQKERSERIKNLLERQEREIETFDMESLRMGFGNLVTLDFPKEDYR

CSNK2A1 = CSNK2A1 (Homo sapiens, UniProt P68400)
ACVR2B = ACVR2B (Homo sapiens, UniProt Q13705)
CAMKK2 = CAMKK2 (Homo sapiens, UniProt Q96RR4)
AAK1 = AAK1 (Homo sapiens, UniProt Q2M2I8)
PLK2 = PLK2 (Homo sapiens, UniProt Q9NYY3)
SIK1 = SIK1 (Homo sapiens, UniProt P57059)
ERK2 = ERK2 (Homo sapiens, UniProt P28482)
CSNK1G2 = CSNK1G2 (Homo sapiens, UniProt P78368)
Chain of CSNK1G2 (P78368 whole entry): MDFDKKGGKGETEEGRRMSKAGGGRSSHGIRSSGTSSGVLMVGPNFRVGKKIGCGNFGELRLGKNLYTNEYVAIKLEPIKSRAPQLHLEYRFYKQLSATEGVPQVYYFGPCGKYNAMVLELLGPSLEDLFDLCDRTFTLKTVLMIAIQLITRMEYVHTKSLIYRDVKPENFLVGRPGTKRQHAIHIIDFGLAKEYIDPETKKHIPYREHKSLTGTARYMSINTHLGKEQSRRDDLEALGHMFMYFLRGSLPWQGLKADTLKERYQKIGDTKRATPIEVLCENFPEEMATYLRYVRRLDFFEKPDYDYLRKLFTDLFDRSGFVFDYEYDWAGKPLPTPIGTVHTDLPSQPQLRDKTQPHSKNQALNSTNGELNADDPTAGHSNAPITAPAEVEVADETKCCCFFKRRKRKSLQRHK

CSF1R = CSF1R (Homo sapiens, UniProt P07333)
BTK = BTK (Homo sapiens, UniProt Q06187)
EPHB2 = EPHB2 (Homo sapiens, UniProt P29323)
EGFR(L858R,T790M) = EGFR(L858R,T790M) (Homo sapiens, UniProt P00533, L858R/T790M)

Chain of MAST1 (Q9Y2H9 whole entry): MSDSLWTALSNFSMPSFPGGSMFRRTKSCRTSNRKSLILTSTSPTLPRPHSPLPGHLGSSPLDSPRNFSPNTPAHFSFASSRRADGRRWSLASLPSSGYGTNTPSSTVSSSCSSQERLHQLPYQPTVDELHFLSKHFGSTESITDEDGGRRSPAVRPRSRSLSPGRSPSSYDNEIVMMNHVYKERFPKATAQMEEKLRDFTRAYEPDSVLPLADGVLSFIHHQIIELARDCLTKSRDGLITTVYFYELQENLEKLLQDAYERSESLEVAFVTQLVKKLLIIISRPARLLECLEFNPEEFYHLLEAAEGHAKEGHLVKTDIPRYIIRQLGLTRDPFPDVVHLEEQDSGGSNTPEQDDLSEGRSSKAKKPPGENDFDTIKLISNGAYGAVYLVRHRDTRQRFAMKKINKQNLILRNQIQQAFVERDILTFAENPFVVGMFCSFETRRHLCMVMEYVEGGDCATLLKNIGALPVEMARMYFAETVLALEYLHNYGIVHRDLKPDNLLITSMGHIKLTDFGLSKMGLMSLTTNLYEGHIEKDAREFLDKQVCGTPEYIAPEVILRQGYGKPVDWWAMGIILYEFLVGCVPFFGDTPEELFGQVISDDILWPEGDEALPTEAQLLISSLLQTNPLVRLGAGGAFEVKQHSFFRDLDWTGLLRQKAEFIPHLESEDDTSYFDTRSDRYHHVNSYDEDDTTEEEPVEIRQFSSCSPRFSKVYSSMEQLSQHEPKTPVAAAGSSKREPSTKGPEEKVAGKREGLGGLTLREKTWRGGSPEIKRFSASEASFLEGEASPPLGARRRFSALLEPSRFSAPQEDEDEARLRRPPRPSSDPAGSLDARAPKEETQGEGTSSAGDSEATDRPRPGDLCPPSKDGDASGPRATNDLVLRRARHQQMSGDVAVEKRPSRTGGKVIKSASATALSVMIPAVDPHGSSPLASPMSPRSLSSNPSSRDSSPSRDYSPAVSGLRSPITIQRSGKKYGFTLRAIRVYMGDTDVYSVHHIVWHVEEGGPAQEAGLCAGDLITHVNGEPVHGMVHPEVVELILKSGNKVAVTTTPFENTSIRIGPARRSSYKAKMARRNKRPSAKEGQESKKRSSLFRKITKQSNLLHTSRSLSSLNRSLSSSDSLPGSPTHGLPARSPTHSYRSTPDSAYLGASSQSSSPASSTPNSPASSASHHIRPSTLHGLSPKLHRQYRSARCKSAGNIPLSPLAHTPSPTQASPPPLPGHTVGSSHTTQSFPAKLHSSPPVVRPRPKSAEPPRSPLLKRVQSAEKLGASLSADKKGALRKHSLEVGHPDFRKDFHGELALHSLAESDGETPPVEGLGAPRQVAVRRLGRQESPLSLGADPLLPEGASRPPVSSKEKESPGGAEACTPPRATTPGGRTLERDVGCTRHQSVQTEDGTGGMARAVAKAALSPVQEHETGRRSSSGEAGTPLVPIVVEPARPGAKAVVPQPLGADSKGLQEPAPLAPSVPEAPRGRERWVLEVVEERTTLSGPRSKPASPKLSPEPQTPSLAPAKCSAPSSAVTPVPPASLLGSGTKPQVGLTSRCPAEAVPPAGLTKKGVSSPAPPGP

Compound: CNc1ncc2cc(-c3ccc(-c4cccc(C)n4)cc3Cl)c(=O)n(C[C@H]3OC[C@H](N)CO3)c2n1 [compound 6, G-5555]
- Percent Control (TAOK1): 87%
- Percent Control (MST1): 51%
- Percent Control (FLT3(N841I)): 97%
- Percent Control (DLK): 100%
- Percent Control (TRKC): 96%
- Percent Control (SRMS): 100%
- Percent Control (JNK2): 75%
- Percent Control (MAST1): 0.4%
- Percent Control (WNK2): 88%
- Percent Control (CDK8): 100%
- Percent Control (PKAC-alpha): 100%
- Percent Control (TSSK3): 84%
- Percent Control (CAMK2G): 100%
- Percent Control (MYLK2): 81%
- Percent Control (FYN): 87%
- Percent Control (MRCKB): 5.3%
- Percent Control (PKN2): 100%
- Percent Control (TAOK3): 100%
- Percent Control (CSNK2A1): 98%
- Percent Control (ACVR2B): 100%
- Percent Control (CAMKK2): 100%
- Percent Control (AAK1): 100%
- Percent Control (PLK2): 84%
- Percent Control (SIK1): 0.6%
- Percent Control (ERK2): 86%
- Percent Control (CSNK1G2): 83%
- Percent Control (CSF1R): 92%
- Percent Control (BTK): 63%
- Percent Control (EPHB2): 79%
- Percent Control (EGFR(L858R,T790M)): 100%
